Results on 29 molecules are retold here after patent US7595401B2, “Therapeutic compounds and their use in cancer” (Myriad Pharmaceuticals, Inc., priority 2006, dated 2009).

For the first experiment, the system named is purified human Hsp90. The experiment is described as follows: Binding Assay: fluorescence polarization with BODIPY-labeled geldanamycin. Particulars: 5 μM compound, BODIPY-GM 10 nM, Hsp90 30 nM. The method in brief:
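Fluorescence polarization competition with BODIPY-geldanamycin (10 nM final) and human Hsp90 (30 nM final) in HEPES-KOH pH 7.3 buffer with molybdate, NP-40, DTT; 2% DMSO, overnight at room temperature. Read 485/530 nm; percent inhibition from mP normalized to DMSO controls, fluorescent-compound points excluded.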
For orientation: In fluorescence polarisation assays a small probe gives low polarisation when free and higher when bound to something large.
As a reminder, the % Inhibition is how much of the control response was suppressed. For the molecule `CC(C)(C)OC(=O)N1CCC[C@H]1C(=O)N1CCC(CCn2cnc(N)c3nc(Sc4cc5c(cc4Br)OCO5)nc2-3)CC1` [Example 731, tert-Butyl(2S)-2-{[4-(2-{6-amino-8-[(6-bromo-1,3-benzodioxol-5-yl)thio]-3H-purin-3-yl}ethyl)piperidin-1-yl]carbonyl}pyrrolidine-1-carboxylate], the “% Inhibition at 5 μM Compound Concentration” value was 1.0%.

With `C[C@H](NC(=O)OC(C)(C)C)C(=O)N1CCCC(Cn2cnc(N)c3nc(Sc4cc5c(cc4Br)OCO5)nc2-3)C1` (stereo partly drawn) [Example 779, tert-butyl {(1S)-2-[3-({6-amino-8-[(6-bromo-1,3-benzodioxol-5-yl)thio]-3H-purin-3-yl}methyl)piperidin-1-yl]-1-methyl-2-oxoethyl}carbamate], the “% Inhibition at 5 μM Compound Concentration” value is 43.00%.

Staying with this experiment, now noted: BODIPY-GM 10 nM, Hsp90 30 nM.
By IC50 is commonly meant the concentration that inhibits the measured activity by half. As for `CC(C)(C)OC(=O)N1CCCC[C@H]1C(=O)N1CCC(CCn2c(Sc3cc4c(cc3Br)OCO4)nc3c(N)ncnc32)CC1` [Example 732, tert-Butyl(2S)-2-{[4-(2-{6-amino-8-[(6-bromo-1,3-benzodioxol-5-yl)thio]-9H-purin-9-yl}ethyl)piperidin-1-yl]carbonyl}piperidine-1-carboxylate], the IC50 is above 5000 nM.

In turn, `C[C@@H](NC(=O)OC(C)(C)C)C(=O)N1CCC[C@@H](CCn2c(Sc3cc4c(cc3Br)OCO4)nc3c(N)ncnc32)C1` [Example 734, tert-Butyl{(1R)-2-[(3S)-3-(2-{6-amino-8-[(6-bromo-1,3-benzodioxol-5-yl)thio]-9H-purin-9-yl}ethyl)piperidin-1-yl]-1-methyl-2-oxoethyl}carbamate] came in with an IC50 above 2000 nM.

Molecule `C[C@H](N)C(=O)N1CCC(CCn2c(Sc3cc4c(cc3Br)OCO4)nc3c(N)ncnc32)CC1` [Example 742, 9-(2-{1-[(2S)-2-Aminopropanoyl]piperidin-4-yl}ethyl)-8-[(6-bromo-1,3-benzodioxol-5-yl)thio]-9H-purin-6-amine] registered an IC50 of 140 nM.

The molecule `C[C@@H](N)C(=O)N1CCCC(CCn2c(Sc3cc4c(cc3Br)OCO4)nc3c(N)ncnc32)C1` (stereo partly drawn) [Example 743, 9-(2-{1-[(2R)-2-Aminopropanoyl]piperidin-3-yl}ethyl)-8-[(6-bromo-1,3-benzodioxol-5-yl)thio]-9H-purin-6-amine] registered an IC50 of 40 nM.

For the molecule `CC(C)C[C@H](N)C(=O)N1CCC(CCn2c(Sc3cc4c(cc3Br)OCO4)nc3c(N)ncnc32)CC1` [Example 744, 9-(2-{1-[(2S)-2-Amino-4-methylpentanoyl]piperidin-4-yl}ethyl)-8-[(6-bromo-1,3-benzodioxol-5-yl)thio]-9H-purin-6-amine], the IC50 was 68 nM.

With `CC(C)[C@H](N)C(=O)N1CCCC(CCn2c(Sc3cc4c(cc3Br)OCO4)nc3c(N)ncnc32)C1` (stereo partly drawn) [Example 745, 9-(2-{1-[(2S)-2-Amino-3-methylbutanoyl]piperidin-3-yl}ethyl)-8-[(6-bromo-1,3-benzodioxol-5-yl)thio]-9H-purin-6-amine], the IC50 amounted to 123 nM.

`C[C@@H](N)C(=O)N1CCC(CCn2c(Sc3cc4c(cc3Br)OCO4)nc3c(N)ncnc32)CC1` [Example 746, 9-(2-{1-[(2R)-2-Aminopropanoyl]piperidin-4-yl}ethyl)-8-[(6-bromo-1,3-benzodioxol-5-yl)thio]-9H-purin-6-amine] had an IC50 of 240 nM.

For `C[C@H](N)C(=O)N1CCCC(CCn2c(Sc3cc4c(cc3Br)OCO4)nc3c(N)ncnc32)C1` (stereo partly drawn) [Example 747, 9-(2-{1-[(2S)-2-Aminopropanoyl]piperidin-3-yl}ethyl)-8-[(6-bromo-1,3-benzodioxol-5-yl)thio]-9H-purin-6-amine], the IC50 amounted to 110 nM.

The molecule `CC(C)C[C@H](N)C(=O)N1CCCC(CCn2c(Sc3cc4c(cc3Br)OCO4)nc3c(N)ncnc32)C1` (stereo partly drawn) [Example 748, 9-(2-{1-[(2S)-2-Amino-4-methylpentanoyl]piperidin-3-yl}ethyl)-8-[(6-bromo-1,3-benzodioxol-5-yl)thio]-9H-purin-6-amine] came in with an IC50 of 210 nM.

With `CN[C@@H](C)C(=O)N1CCC(CCn2c(Sc3cc4c(cc3Br)OCO4)nc3c(N)ncnc32)CC1` [Example 749, 8-[(6-Bromo-1,3-benzodioxol-5-yl)thio]-9-(2-{1-[(2S)-2-(methylamino)propanoyl]piperidin-4-yl}ethyl)-9H-purin-6-amine], the IC50 came to 330 nM.

With `CC(C)(N)C(=O)N1CCC(CCn2c(Sc3cc4c(cc3Br)OCO4)nc3c(N)ncnc32)CC1` [Example 750, 9-{2-[1-(2-Amino-2-methylpropanoyl)piperidin-4-yl]ethyl}-8-[(6-bromo-1,3-benzodioxol-5-yl)thio]-9H-purin-6-amine], the IC50 was 180 nM.

Molecule `Nc1ncnc2c1nc(Sc1cc3c(cc1Br)OCO3)n2CCC1CCN(C(=O)C2(N)CC2)CC1` [Example 751, 9-(2-{1-[(1-Amino-cyclopropyl)carbonyl]piperidine-4-yl}ethyl)-8-[(6-bromo-1,3-benzodioxol-5-yl)thio]-9H-purin-6-amine] yielded an IC50 of 195 nM.

Turning to `Nc1ncnc2c1nc(Sc1cc3c(cc1Br)OCO3)n2CCC1CCN(C(=O)[C@@H]2CCN2)CC1` [Example 752, 9-(2-{1-[(2S)-Azetidin-2-ylcarbonyl]piperidin-4-yl}ethyl)-8-[(6-bromo-1,3-benzo-dioxol-5-yl)thio]-9H-purin-6-amine], the IC50 stood at 130 nM.

`Nc1ncnc2c1nc(Sc1cc3c(cc1Br)OCO3)n2CCC1CCN(C(=O)[C@@H]2CCCN2)CC1` [Example 753, 8-[(6-Bromo-1,3-benzodioxol-5-yl)thio]-9-[2-(1-L-prolyl-piperidin-4-yl)ethyl]-9H-purin-6-amine]: the IC50 is 59 nM.

`Nc1ncnc2c1nc(Sc1cc3c(cc1Br)OCO3)n2CCC1CCN(C(=O)[C@@H]2CCCCN2)CC1` [Example 754, 8-[(6-Bromo-1,3-benzodioxol-5-yl)thio]-9-(2-{1-[(2S)-piperidin-2-ylcarbonyl]piperidin-4-yl}ethyl)-9H-purin-6-amine] returned an IC50 of 50 nM.

In the case of `C[C@@H](N)C(=O)N1CCC[C@@H](CCn2c(Sc3cc4c(cc3Br)OCO4)nc3c(N)ncnc32)C1` [Example 755, 9-(2-{(3S)-1-[(2R)-2-Aminopropanoyl]piperidin-3-yl}ethyl)-8-[(6-bromo-1,3-benzodioxol-5-yl)thio]-9H-purin-6-amine], the IC50 is 140 nM.

Take `C[C@H](O)C(=O)N1CCC(CCn2c(Sc3cc4c(cc3Br)OCO4)nc3c(N)ncnc32)CC1` [Example 757, (2S)-1-[4-(2-{6-amino-8-[(6-bromo-1,3-benzodioxol-5-yl)thio]-9H-purin-9-yl}ethyl)piperidin-1-yl]-1-oxopropan-2-ol]: the IC50 was 205 nM.

Molecule `Nc1ncnc2c1nc(Sc1cc3c(cc1Br)OCO3)n2CCC1CCN(C(=O)CO)CC1` [Example 760, 2-[4-(2-{6-Amino-8-[(6-bromo-1,3-benzodioxol-5-yl)thio]-9H-purin-9-yl}ethyl)piperidin-1-yl]-2-oxoethanol] had an IC50 of 325 nM.

In turn, `C[C@H](O)C(=O)N1CCC(CCn2c(Sc3ccc4c(c3)CCO4)nc3c(N)ncnc32)CC1` [Example 768, (2S)-1-(4-{2-[6-Amino-8-(2,3-dihydro-1-benzofuran-5-ylthio)-9H-purin-9-yl]ethyl}piperidin-1-yl)-1-oxopropan-2-ol] registered an IC50 above 5000 nM.

`Nc1ncnc2c1nc(Sc1cc3c(cc1Br)OCO3)n2CCC1CCN(C(=O)[C@@H](O)CO)CC1` [Example 771, (2S)-3-[4-(2-{6-amino-8-[(6-bromo-1,3-benzodioxol-5-yl)thio]-9H-purin-9-yl}ethyl)piperidin-1-yl]-3-oxopropane-1,2-diol] registered an IC50 of 120 nM.

Take `C[C@H](NC(=O)OC(C)(C)C)C(=O)N1CCC(CCn2c(Br)nc3c(N)ncnc32)CC1` [Example 772, tert-Butyl ((1S)-2-{4-[2-(6-amino-8-bromo-9H-purin-9-yl)ethyl]piperidin-1-yl}-1-methyl-2-oxoethyl)carbamate]: the IC50 is above 5000 nM.

Take `C[C@H](NC(=O)OC(C)(C)C)C(=O)N1CCC(CCn2c(Sc3nc4cccc(Cl)c4s3)nc3c(N)ncnc32)CC1` [Example 773, tert-Butyl {(1S)-2-[4-(2-{6-amino-8-[(7-chloro-1,3-benzothiazol-2-yl)thio]-9H-purin-9-yl}ethyl)piperidin-1-yl]-1-methyl-2-oxoethyl}carbamate]: the IC50 worked out at 390 nM.

In turn, `C[C@H](N)C(=O)N1CCC(CCn2c(Sc3nc4cccc(Cl)c4s3)nc3c(N)ncnc32)CC1` [Example 774, 9-(2-{1-[(2S)-2-Aminopropanoyl]piperidin-4-yl}ethyl)-8-[(7-chloro-1,3-benzothiazol-2-yl)thio]-9H-purin-6-amine] gave an IC50 of 200 nM.

Molecule `C[C@H](O)C(=O)N1CCC(CCn2c(Sc3nc4cccc(Cl)c4s3)nc3c(N)ncnc32)CC1` [Example 775, (2S)-1-[4-(2-{6-Amino-8-[(7-chloro-1,3-benzothiazol-2-yl)thio]-9H-purin-9-yl}ethyl)piperidin-1-yl]-1-oxopropan-2-ol] gave an IC50 of 1800 nM.

Regarding `CC(=O)N1CCC[C@H]1C(=O)N1CCC(CCn2c(Sc3cc4c(cc3Br)OCO4)nc3c(N)ncnc32)CC1` [Example 776, 9-{2-[1-(1-Acetyl-L-prolyl)piperidin-4-yl]ethyl}-8-[(6-bromo-1,3-benzodioxol-5-yl)thio]-9H-purin-6-amine], the IC50 was determined as 310 nM.

The molecule `C[C@H](NC(=O)OC(C)(C)C)C(=O)N1CCCC(Cn2c(Sc3cc4c(cc3Br)OCO4)nc3c(N)ncnc32)C1` (stereo partly drawn) [Example 778, tert-Butyl {(1S)-2-[3-({6-amino-8-[(6-bromo-1,3-benzodioxol-5-yl)thio]-9H-purin-9-yl}methyl)piperidin-1-yl]-1-methyl-2-oxoethyl}carbamate] came in with an IC50 of 2000 nM.

The subject of another experiment is Luciferase refolding. The experiment is described as follows: Luciferase refolding assay. It is filed as biochemical. The arrangement: key: *Compound is active in Luciferase refolding assay. Particulars: compound fluorescent in FP binding assay.
As to `CC(C)(C)OC(=O)N1CCOC(CCn2cnc(N)c3nc(Sc4cc5c(cc4Br)OCO5)nc2-3)C1` (centres unmarked) [Example 368, tert-Butyl 2-(2-{6-amino-8-[(6-bromo-1,3-benzodioxol-5-yl)thio]-3H-purin-3-yl}ethyl)morpholine-4-carboxylate], the “active in Luciferase refolding assay (asterisk footnote)” value was “*Fluorescent”.
